Laboratory results published in PubChem BioAssay AID1963958 (Molecular Pharmacology Branch, DTP, NCI, 2024).

Test system: MDA-MB-231 multicell spheroids, viability
Experiment: Anticancer human tumor MDA-MB-231 cell line growth inhibition [PI3K];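 further: spheroids exposed to agents for seven days before reading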;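 on viability, T/C: percent of vehicle control luminescence with DMSO treated spheroids as 100%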
Details: for IC50: curve of first compound; for viability, T/C: stronger effect = lower value; active means viability on the fitted dose curve at most 10% of control; inactive means the rest
Procedure, shortened: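 High-throughput combination screen: PI3K inhibitors crossed with targeted small molecules on complex spheroids of tumor cells, HUVEC and MSCs at 37 degrees C, 5% CO2. Top concentration was at or near clinical Cmax (otherwise 10 microM), with half-log decrements.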

[1] = second compound 0.0316 µM, first compound 0.0316 µM
[2] = second compound 0.0316 µM, first compound 0.1 µM
[3] = second compound 0.0316 µM, first compound 0.316 µM
[4] = second compound 0.0316 µM, first compound 1 µM
[5] = second compound 0.1 µM, first compound 0.0316 µM
[6] = second compound 0.1 µM, first compound 0.1 µM
[7] = second compound 0.1 µM, first compound 0.316 µM
[8] = second compound 0.1 µM, first compound 1 µM
[9] = second compound 0.316 µM, first compound 0.0316 µM
[10] = second compound 0.316 µM, first compound 0.1 µM
[11] = second compound 0.316 µM, first compound 0.316 µM
[12] = second compound 0.316 µM, first compound 1 µM
[13] = second compound 1 µM, first compound 0.0316 µM
[14] = second compound 1 µM, first compound 0.1 µM
[15] = second compound 1 µM, first compound 0.316 µM
[16] = second compound 1 µM, first compound 1 µM
[17] = second compound 3.16 µM, first compound 0.0316 µM
[18] = second compound 3.16 µM, first compound 0.1 µM
[19] = second compound 3.16 µM, first compound 0.316 µM
[20] = second compound 3.16 µM, first compound 1 µM
[21] = second compound 10 µM, first compound 0.0316 µM
[22] = second compound 10 µM, first compound 0.1 µM
[23] = second compound 10 µM, first compound 0.316 µM
[24] = second compound 10 µM, first compound 1 µM
[25] = second compound 0.0316 µM, first compound 3.16 µM
[26] = second compound 0.0316 µM, first compound 10 µM
[27] = second compound 0.1 µM, first compound 3.16 µM
[28] = second compound 0.1 µM, first compound 10 µM
[29] = second compound 0.316 µM, first compound 3.16 µM
[30] = second compound 0.316 µM, first compound 10 µM
[31] = second compound 1 µM, first compound 3.16 µM
[32] = second compound 1 µM, first compound 10 µM
[33] = second compound 3.16 µM, first compound 3.16 µM
[34] = second compound 3.16 µM, first compound 10 µM
[35] = second compound 10 µM, first compound 3.16 µM
[36] = second compound 10 µM, first compound 10 µM

CCN1CCN(Cc2ccc(Nc3ncc(F)c(-c4cc(F)c5nc(C)n(C(C)C)c5c4)n3)nc2)CC1 + CC(Nc1ncnc2nc[nH]c12)c1cc2cccc(Cl)c2c(=O)n1-c1ccccc1
inactive: viability, T/C (second compound 0.0316 µM, first compound 0.00316 µM) 96.7% | viability, T/C (second compound 0.0316 µM, first compound 0.01 µM) 93.2% | viability, T/C [1] 81.4% | viability, T/C [2] 58.9% | viability, T/C [3] 57.1% | viability, T/C [4] 56.8% | viability, T/C (second compound 0.1 µM, first compound 0.00316 µM) 98.2% | viability, T/C (second compound 0.1 µM, first compound 0.01 µM) 84.4% | viability, T/C [5] 79% | viability, T/C [6] 59.1% | viability, T/C [7] 55% | viability, T/C [8] 51.9% | viability, T/C (second compound 0.316 µM, first compound 0.00316 µM) 92.9% | viability, T/C (second compound 0.316 µM, first compound 0.01 µM) 80.7% | viability, T/C [9] 71.2% | viability, T/C [10] 56.8% | viability, T/C [11] 47.4% | viability, T/C [12] 53.5% | viability, T/C (second compound 1 µM, first compound 0.00316 µM) 78.4% | viability, T/C (second compound 1 µM, first compound 0.01 µM) 70.8% | viability, T/C [13] 53.6% | viability, T/C [14] 47.8% | viability, T/C [15] 50.3% | viability, T/C [16] 49.6% | viability, T/C (second compound 3.16 µM, first compound 0.00316 µM) 62.1% | viability, T/C (second compound 3.16 µM, first compound 0.01 µM) 54.5% | viability, T/C [17] 49% | viability, T/C [18] 36.8% | viability, T/C [19] 40.5% | viability, T/C [20] 46.7% | viability, T/C (second compound 10 µM, first compound 0.00316 µM) 46.5% | viability, T/C (second compound 10 µM, first compound 0.01 µM) 40.7% | viability, T/C [21] 37.2% | viability, T/C [22] 29.3% | viability, T/C [23] 41.1% | viability, T/C [24] 49.6%
< 3.16 nM: IC50 (second compound 10 µM)
20.1 nM: IC50 (second compound 3.16 µM)
> 1000 nM: IC50 (second compound 0.0316 µM) | IC50 (second compound 0.1 µM)
988 nM: IC50 (second compound 0.316 µM)
85.4 nM: IC50 (second compound 1 µM)

Cn1ncc(Cl)c1-c1cc(C(=O)NC(CN)Cc2cccc(F)c2)sc1Cl (stereo unspecified) + CC(Nc1ncnc2nc[nH]c12)c1cc2cccc(Cl)c2c(=O)n1-c1ccccc1
< 31.6 nM: IC50 (second compound 10 µM)
2190 nM: IC50 (second compound 1 µM)
2610 nM: IC50 (second compound 0.316 µM)
3880 nM: IC50 (second compound 0.0316 µM)
inactive: viability, T/C [1] 100% | viability, T/C [2] 96.4% | viability, T/C [3] 84.6% | viability, T/C [4] 74.9% | viability, T/C [25] 55% | viability, T/C [26] 27.8% | viability, T/C [5] 103% | viability, T/C [6] 97.7% | viability, T/C [7] 95.4% | viability, T/C [8] 75.4% | viability, T/C [27] 53.3% | viability, T/C [28] 29.2% | viability, T/C [9] 93.1% | viability, T/C [10] 97.6% | viability, T/C [11] 84.9% | viability, T/C [12] 65.2% | viability, T/C [29] 48.9% | viability, T/C [30] 27.5% | viability, T/C [13] 77.5% | viability, T/C [14] 80.5% | viability, T/C [15] 69.5% | viability, T/C [16] 64% | viability, T/C [31] 43.6% | viability, T/C [32] 23.4% | viability, T/C [17] 63.6% | viability, T/C [18] 62.2% | viability, T/C [19] 57% | viability, T/C [20] 51.9% | viability, T/C [33] 36.3% | viability, T/C [34] 22% | viability, T/C [21] 45.3% | viability, T/C [22] 45% | viability, T/C [23] 47.5% | viability, T/C [24] 43.2% | viability, T/C [35] 29.1% | viability, T/C [36] 20.9%
3590 nM: IC50 (second compound 0.1 µM)
1050 nM: IC50 (second compound 3.16 µM)

Cn1nccc1Nc1nccc(-c2ccn(C(CO)c3ccc(Cl)c(F)c3)c(=O)c2)n1 (stereo unspecified) + CC(Nc1ncnc2nc[nH]c12)c1cc2cccc(Cl)c2c(=O)n1-c1ccccc1
117 nM: IC50 (second compound 1 µM)
< 31.6 nM: IC50 (second compound 3.16 µM) | IC50 (second compound 10 µM)
300 nM: IC50 (second compound 0.316 µM)
inactive: viability, T/C [1] 80.1% | viability, T/C [2] 68.8% | viability, T/C [3] 56.8% | viability, T/C [4] 46.4% | viability, T/C [25] 38.6% | viability, T/C [26] 27.9% | viability, T/C [5] 75.3% | viability, T/C [6] 70.2% | viability, T/C [7] 50.6% | viability, T/C [8] 44.3% | viability, T/C [27] 36.4% | viability, T/C [28] 27.1% | viability, T/C [9] 79.3% | viability, T/C [10] 62.3% | viability, T/C [11] 48% | viability, T/C [12] 40.1% | viability, T/C [29] 35.5% | viability, T/C [30] 26.8% | viability, T/C [13] 64.8% | viability, T/C [14] 50.1% | viability, T/C [15] 39.4% | viability, T/C [16] 36.4% | viability, T/C [31] 33% | viability, T/C [32] 22.1% | viability, T/C [17] 45.9% | viability, T/C [18] 38.8% | viability, T/C [19] 28.5% | viability, T/C [20] 24.8% | viability, T/C [33] 25.2% | viability, T/C [34] 21.2% | viability, T/C [21] 36.5% | viability, T/C [22] 27.3% | viability, T/C [23] 25.7% | viability, T/C [24] 20.8% | viability, T/C [35] 22.9% | viability, T/C [36] 16.8%
706 nM: IC50 (second compound 0.0316 µM)
512 nM: IC50 (second compound 0.1 µM)
